Measurements published in ChEMBL document CHEMBL5465560, “Selectivity Literature for EUbOPEN Chemogenomic Library” (2024).

Legend:
[1] = biological target: Histone-lysine N-methyltransferase 2C (Homo sapiens) (UniProt Q8NEZ4); settings: at 10 µM
[2] = biological target: Serine/threonine-protein kinase N1 (Homo sapiens, UniProt Q16512); assay: Selectivity interaction (KinomeScan (DiscoverX)) EUB0000666a PKN1; settings: at 10 µM
[3] = biological target: Casein kinase I isoform epsilon (Homo sapiens, UniProt P49674); settings: at 10 µM
[4] = biological target: Cyclin-dependent kinase 4 (Homo sapiens, UniProt P11802); assay: Selectivity interaction (KinomeScan (DiscoverX)) EUB0001049a CDK4; settings: at 1 µM
[5] = biological target: T1, Ephrin type-B receptor 4 (Homo sapiens) (UniProt P54760); assay: Selectivity interaction (KinomeScan (DiscoverX)) EUB0001049a EPHB4; settings: at 1 µM
T1 sequence (whole entry): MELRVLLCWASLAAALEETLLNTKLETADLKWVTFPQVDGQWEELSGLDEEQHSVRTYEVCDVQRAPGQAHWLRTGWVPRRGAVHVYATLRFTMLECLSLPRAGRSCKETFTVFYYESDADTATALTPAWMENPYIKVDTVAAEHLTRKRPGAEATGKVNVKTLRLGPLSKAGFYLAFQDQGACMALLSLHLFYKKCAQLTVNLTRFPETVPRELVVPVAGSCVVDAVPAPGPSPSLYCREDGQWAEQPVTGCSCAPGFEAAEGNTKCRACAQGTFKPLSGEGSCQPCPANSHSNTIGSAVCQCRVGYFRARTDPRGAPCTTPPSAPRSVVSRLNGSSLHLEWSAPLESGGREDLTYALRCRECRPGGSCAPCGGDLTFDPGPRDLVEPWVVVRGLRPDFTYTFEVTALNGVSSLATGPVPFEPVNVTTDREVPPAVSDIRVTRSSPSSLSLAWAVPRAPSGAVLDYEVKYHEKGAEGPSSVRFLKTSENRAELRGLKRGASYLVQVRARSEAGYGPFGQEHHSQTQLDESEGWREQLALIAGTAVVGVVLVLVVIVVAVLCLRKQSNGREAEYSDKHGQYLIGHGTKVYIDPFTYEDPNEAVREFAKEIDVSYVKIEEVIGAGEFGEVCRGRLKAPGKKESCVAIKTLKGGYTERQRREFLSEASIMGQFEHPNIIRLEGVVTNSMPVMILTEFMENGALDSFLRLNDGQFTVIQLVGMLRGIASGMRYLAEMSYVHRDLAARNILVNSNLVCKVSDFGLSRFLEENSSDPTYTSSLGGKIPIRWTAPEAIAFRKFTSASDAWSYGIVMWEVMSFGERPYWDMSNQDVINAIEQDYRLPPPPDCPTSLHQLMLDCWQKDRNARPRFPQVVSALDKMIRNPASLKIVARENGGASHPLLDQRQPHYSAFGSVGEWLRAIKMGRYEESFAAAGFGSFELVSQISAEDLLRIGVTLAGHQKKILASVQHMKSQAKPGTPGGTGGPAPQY

[6] = biological target: Histone-lysine N-methyltransferase KMT5C (Homo sapiens) (UniProt Q86Y97); assay: Selectivity interaction (Methyltransferase screen (Scintillation proximity assays)) EUB0000255b SUV420H2
[7] = biological target: T2, Ephrin type-A receptor 1 (Homo sapiens) (UniProt P21709); assay: Selectivity interaction (SelectScreen profiling (Invitrogen)) EUB0000607a EPHA1; settings: at 2 µM
T2 sequence (whole entry): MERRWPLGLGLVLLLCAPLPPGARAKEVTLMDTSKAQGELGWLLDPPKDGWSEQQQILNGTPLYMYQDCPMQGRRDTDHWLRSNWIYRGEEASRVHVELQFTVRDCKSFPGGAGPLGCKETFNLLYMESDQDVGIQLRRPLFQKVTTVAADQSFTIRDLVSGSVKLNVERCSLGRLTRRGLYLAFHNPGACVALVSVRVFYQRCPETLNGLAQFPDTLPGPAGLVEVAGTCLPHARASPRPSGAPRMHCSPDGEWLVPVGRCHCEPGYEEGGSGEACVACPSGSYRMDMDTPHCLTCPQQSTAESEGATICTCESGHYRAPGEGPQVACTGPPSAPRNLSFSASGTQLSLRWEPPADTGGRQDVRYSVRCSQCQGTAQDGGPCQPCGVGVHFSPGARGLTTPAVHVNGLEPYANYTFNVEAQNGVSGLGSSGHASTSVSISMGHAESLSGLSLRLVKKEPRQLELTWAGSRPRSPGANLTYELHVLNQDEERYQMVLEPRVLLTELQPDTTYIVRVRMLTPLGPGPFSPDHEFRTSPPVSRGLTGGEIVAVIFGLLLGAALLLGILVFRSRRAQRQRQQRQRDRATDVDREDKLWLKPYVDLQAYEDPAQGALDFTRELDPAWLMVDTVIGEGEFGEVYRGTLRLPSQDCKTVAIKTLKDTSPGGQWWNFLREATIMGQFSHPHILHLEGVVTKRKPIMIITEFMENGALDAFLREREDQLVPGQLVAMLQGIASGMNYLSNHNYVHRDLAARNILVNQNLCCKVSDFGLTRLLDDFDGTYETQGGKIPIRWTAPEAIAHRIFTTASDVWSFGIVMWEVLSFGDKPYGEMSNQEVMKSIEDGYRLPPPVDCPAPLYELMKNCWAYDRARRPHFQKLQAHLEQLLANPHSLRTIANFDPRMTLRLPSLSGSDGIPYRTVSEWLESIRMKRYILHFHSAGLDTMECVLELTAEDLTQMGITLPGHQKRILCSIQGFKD

[8] = biological target: Serine/threonine-protein kinase MARK2 (Homo sapiens) (UniProt Q7KZI7); assay: Selectivity interaction (KinomeScan (DiscoverX)) EUB0000618a MARK2; settings: at 10 µM
[9] = biological target: Homeodomain-interacting protein kinase 3 (Homo sapiens, UniProt Q9H422); assay: Selectivity interaction (KinomeScan (DiscoverX)) EUB0000092b HIPK3; settings: at 10 µM
Chain of Homeodomain-interacting protein kinase 3 (Q9H422 whole entry, looked up): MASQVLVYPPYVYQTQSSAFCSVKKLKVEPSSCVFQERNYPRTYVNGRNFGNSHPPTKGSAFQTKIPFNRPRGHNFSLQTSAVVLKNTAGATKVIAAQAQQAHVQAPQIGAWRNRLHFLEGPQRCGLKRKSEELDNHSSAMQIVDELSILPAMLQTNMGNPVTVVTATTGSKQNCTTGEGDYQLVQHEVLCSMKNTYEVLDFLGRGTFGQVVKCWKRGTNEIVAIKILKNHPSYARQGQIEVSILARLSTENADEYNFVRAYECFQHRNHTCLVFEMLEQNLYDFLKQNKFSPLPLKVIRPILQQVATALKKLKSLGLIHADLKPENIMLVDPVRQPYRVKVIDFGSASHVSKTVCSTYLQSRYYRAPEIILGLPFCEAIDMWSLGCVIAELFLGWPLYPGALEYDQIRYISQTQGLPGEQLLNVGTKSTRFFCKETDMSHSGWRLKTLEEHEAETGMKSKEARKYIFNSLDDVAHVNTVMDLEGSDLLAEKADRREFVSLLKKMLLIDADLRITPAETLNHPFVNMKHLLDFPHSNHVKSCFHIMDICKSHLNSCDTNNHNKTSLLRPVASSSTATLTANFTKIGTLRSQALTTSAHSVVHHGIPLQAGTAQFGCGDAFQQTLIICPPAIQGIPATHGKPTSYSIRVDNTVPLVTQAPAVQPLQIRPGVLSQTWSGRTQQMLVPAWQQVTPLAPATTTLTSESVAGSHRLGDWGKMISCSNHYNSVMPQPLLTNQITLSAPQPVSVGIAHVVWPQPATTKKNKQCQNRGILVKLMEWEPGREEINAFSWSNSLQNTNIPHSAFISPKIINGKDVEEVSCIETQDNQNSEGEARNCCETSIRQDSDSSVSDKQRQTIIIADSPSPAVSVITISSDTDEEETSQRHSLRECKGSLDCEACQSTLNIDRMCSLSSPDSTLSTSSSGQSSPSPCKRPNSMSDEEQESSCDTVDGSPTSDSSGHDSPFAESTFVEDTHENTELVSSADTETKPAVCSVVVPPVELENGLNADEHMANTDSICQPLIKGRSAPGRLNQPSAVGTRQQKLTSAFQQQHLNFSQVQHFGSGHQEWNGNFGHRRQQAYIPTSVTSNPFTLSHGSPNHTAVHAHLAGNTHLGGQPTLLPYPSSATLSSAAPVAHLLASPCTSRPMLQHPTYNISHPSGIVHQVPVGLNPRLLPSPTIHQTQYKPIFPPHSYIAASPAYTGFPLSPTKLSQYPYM

Chain of Histone-lysine N-methyltransferase KMT5C (Homo sapiens) (Q86Y97 whole entry, looked up): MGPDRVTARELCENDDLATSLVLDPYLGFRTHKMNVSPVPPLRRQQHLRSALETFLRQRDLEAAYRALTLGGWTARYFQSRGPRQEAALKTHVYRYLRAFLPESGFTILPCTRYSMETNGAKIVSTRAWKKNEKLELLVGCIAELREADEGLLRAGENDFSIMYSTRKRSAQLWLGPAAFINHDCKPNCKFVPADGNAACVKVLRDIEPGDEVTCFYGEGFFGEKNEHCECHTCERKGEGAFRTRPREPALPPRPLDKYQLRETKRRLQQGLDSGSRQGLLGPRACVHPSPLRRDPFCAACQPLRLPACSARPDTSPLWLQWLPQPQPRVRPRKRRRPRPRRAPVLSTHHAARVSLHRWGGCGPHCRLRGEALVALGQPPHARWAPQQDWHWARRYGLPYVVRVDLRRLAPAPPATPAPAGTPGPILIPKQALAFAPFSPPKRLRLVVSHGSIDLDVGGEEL
Chain of Cyclin-dependent kinase 4 (P11802 whole entry): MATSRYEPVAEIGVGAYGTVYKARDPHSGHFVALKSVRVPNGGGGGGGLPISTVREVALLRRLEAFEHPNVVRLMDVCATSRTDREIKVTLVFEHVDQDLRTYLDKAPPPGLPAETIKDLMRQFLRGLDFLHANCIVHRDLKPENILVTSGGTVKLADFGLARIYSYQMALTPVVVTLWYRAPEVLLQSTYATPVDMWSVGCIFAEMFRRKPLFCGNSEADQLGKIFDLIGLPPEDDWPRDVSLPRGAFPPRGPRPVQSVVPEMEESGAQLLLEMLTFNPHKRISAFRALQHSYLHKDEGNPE
Chain of Casein kinase I isoform epsilon (P49674 whole entry, looked up, canonical isoform): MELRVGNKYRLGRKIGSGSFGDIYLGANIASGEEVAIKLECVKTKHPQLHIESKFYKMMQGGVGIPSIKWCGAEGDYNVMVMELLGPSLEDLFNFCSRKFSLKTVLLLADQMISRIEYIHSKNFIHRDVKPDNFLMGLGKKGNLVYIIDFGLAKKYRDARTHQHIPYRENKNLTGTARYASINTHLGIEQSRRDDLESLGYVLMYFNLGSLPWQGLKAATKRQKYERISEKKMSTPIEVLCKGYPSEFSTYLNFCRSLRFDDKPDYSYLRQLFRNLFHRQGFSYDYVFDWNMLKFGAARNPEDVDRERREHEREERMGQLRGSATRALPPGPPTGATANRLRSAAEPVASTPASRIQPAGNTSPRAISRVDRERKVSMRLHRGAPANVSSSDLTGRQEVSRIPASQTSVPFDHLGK
Chain of Serine/threonine-protein kinase MARK2 (Homo sapiens) (Q7KZI7 whole entry): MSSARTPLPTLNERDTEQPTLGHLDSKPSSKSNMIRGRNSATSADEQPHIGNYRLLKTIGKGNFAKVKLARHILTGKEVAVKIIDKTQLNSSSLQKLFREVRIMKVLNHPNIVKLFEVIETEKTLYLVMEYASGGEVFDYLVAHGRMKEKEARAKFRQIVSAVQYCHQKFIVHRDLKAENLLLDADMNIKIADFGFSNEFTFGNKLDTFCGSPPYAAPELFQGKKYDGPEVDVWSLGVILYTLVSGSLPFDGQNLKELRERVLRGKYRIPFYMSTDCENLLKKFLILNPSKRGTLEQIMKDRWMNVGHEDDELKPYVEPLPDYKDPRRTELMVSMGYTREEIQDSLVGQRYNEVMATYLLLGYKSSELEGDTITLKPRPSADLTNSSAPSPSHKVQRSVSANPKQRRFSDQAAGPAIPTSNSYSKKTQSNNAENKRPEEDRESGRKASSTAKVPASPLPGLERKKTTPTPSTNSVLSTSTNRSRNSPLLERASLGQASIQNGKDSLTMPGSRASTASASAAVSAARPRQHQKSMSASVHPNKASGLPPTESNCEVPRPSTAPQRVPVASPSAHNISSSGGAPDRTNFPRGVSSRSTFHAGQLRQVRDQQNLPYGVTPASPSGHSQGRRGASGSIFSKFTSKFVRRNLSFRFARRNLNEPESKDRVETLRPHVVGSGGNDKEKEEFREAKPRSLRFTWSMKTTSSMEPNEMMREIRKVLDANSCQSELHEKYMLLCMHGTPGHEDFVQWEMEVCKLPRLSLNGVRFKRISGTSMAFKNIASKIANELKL
Chain of Serine/threonine-protein kinase N1 (Q16512 2-942 limits assumed): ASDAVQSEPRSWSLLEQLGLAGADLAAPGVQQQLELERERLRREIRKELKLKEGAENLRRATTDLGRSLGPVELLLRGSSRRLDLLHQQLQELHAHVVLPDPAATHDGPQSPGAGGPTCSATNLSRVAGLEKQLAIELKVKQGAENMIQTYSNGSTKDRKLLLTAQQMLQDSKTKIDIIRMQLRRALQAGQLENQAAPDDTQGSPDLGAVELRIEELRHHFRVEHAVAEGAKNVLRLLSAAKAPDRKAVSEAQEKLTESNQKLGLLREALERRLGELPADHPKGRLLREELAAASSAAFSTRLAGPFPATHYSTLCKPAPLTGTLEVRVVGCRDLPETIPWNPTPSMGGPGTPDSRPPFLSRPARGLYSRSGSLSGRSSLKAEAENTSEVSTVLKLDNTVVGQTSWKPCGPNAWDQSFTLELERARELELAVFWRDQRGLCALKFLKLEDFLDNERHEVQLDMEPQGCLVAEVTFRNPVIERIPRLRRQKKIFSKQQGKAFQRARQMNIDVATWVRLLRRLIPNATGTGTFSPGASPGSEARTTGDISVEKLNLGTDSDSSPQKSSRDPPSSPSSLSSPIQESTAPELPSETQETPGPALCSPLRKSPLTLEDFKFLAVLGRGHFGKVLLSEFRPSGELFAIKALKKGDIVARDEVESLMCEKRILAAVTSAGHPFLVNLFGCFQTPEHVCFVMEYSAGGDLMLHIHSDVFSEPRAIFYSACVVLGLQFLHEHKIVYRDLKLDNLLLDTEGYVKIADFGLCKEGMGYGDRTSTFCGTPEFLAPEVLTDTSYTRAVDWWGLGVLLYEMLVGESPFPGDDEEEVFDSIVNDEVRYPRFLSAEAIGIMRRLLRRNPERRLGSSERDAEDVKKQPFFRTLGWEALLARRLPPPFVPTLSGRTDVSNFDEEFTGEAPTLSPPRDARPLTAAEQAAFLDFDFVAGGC

For `CNCCN1CCC(c2cc(CN(C)C(=O)c3cccc(Oc4ccccc4)c3)ccn2)CC1`, which % activity [1] is on record?
Its % activity is greater than 90%.

`O=C(NOC[C@H](O)CO)c1ccc(F)c(F)c1Nc1ccc(I)cc1F` was tested. Which % of control [2] did it give?
The % of control was 100%.

How did the % of control [3] turn out when `Cc1cc([C@@H](C)Nc2ccccc2C(=O)O)c2nc(N3CCOCC3)cc(=O)n2c1` [AZD-6482] was run?
Its % of control is 98%.

How did the % of control [4] turn out when `COc1cc(Nc2nc(C)cc(-c3cnn4nc(OC)ccc34)n2)cc(C(F)(F)F)c1` was run?
The % of control was 70%.

And the % of control [5]?
The % of control was 94%.

For `COCCN1CCC(c2cc(CN(C)C(=O)c3cccc(Oc4ccccc4)c3)ccn2)CC1`, which % activity ([6]; at 1 µM) is on record?
Its % activity is greater than 95%.

What about the % activity ([6]; at 10 µM) of the same compound?
The % activity was greater than 90%.

How did the % of inhibition [7] turn out when `CNC(=O)Nc1ccc(-c2nc(N3CC4CCC(C3)O4)c3cnn(C4CCC5(CC4)OCCO5)c3n2)cc1` was run?
The % of inhibition was 3%.

`O[C@H]1CC[C@H](Nc2ncc3nc(Nc4c(F)cc(F)cc4F)n([C@H]4CCOC4)c3n2)CC1` was tested. Which % of control [8] did it give?
Its % of control is 100%.

`CCC(=O)N1CCN(c2ccc(-n3c(=O)ccc4cnc5ccc(-c6cnc7ccccc7c6)cc5c43)cc2C(F)(F)F)CC1` was tested. Which % of control [9] did it give?
The % of control was 86%.
